Where a name gives a salt, the structure may show the parent alone. The source made the active and inactive calls.
Experiments:
Mu-type opioid receptor = Mu-type opioid receptor (Homo sapiens, UniProt P35372); type: functional, cell-based;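 further: U2OS cells with beta-arrestin recruitment to OPRM1 by beta-gal complementation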
[1] = target: 5-hydroxytryptamine receptor 2A (Mus musculus, UniProt P35363); type: functional, cell-based;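 further: CHO-K1 cells with tagged receptor and beta-arrestin; agonist potency measured as compound-induced activation of the receptor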
[2] = target: T1, Low molecular weight phosphotyrosine protein phosphatase (Homo sapiens, UniProt P24666); assay: inhibition of LMPTP-A enzymatic activity – biochemical, OMFP substrate, fluorescence intensity, set 2, dose response (AID 743307); type: functional
T1 sequence (P24666 whole entry): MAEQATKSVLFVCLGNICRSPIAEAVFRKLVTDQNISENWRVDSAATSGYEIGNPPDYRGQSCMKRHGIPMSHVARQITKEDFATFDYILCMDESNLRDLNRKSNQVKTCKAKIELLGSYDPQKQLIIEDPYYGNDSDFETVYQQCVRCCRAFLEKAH

[3] = target: T1, Low molecular weight phosphotyrosine protein phosphatase; assay: inhibition of human LMPTP enzyme activity – biochemical, absorbance, pNPP substrate, LMPTP-A isoform, set 2, orthogonal assay, dose response (AID 743308); type: functional
Kallikrein-7 = Kallikrein-7 (Homo sapiens, UniProt P49862); assay: Fluorescence Intensity-based biochemical primary high throughput dose response assay to identify activators of kallikrein-7 (K7) zymogen.
[4] = target: T2, Ubiquitin-conjugating enzyme E2 N (Homo sapiens, UniProt P61088); type: functional;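 further: Dose-response confirmation in a TR-FRET assay detecting UBC13-driven polyubiquitin chain formation, inhibition measured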
T2 sequence (P61088 whole entry): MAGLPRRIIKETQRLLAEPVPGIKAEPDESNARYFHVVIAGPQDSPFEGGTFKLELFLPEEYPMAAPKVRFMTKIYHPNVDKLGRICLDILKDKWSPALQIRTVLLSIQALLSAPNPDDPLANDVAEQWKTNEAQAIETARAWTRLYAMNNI

[5] = viability inhibitors of stage V gametocytes – luminescence, dose response (AID 1117278); type: functional, cell-based;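 further: gametocytes exposed to compound for 24 hours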
[6] = viability loss in human Jurkat cells – cell-based, luminescence, cytotoxicity control for P. falciparum gametocyte viability project, dose response (AID 1117277); type: functional;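 further: potency reflects loss of cellular ATP meaning fewer viable cells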
[7] = reduction of Shn3 3'UTR-driven luciferase in osteoblasts – cell-based, Clone20 osteoblasts, firefly luciferase, cherry-picked, dose response (AID 624132); type: functional;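 further: firefly luciferase luminescence from reporter carrying the Shn3 3'UTR in osteoblasts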
[8] = loss of viability in HepG2 cells – cell-based, CellTiter-Glo, cherry-picked, cytotoxicity control for Shn3 inhibitor project, dose response (AID 624134); type: functional
[9] = non-specific 3'UTR reporter inhibition in Clone20-Shn3RL – cell-based, Renilla luciferase, cherry-picked, counter-screen for Shn3 inhibitor project, dose response (AID 624133); type: functional
[10] = viability loss in CEM21 cells – cell-based, CellTiter-Glo luminescence, cherry-picked, cytotoxicity control for viral fusion inhibitor project, dose response (AID 652042); type: functional;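 further: potency for signal decrease meaning cytotoxicity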
[11] = HIV-1 AD8 envelope cell-cell fusion blockers – cherry-pick, dose response (AID 652062); type: functional, cell-based;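 further: luciferase signal from cell-cell fusion driven by HIV-1 clade B AD8 Env; potency is for inhibitors of fusion seen as a drop in luminescence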
[12] = target: T3, Heat shock factor protein 1 (Mus musculus, UniProt P38532); assay: decrease of HSF1-responsive luciferase luminescence – cell-based, NIH3T3, dose retest, confirmation (AID 2382); type: functional;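 further: NIH3T3 fibroblasts with HSF1-driven luciferase reporter stressed by proteasome inhibitor MG132; luminescence from HSF1-driven luciferase expression after 8 hours of MG132 stress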
T3 sequence (P38532 whole entry): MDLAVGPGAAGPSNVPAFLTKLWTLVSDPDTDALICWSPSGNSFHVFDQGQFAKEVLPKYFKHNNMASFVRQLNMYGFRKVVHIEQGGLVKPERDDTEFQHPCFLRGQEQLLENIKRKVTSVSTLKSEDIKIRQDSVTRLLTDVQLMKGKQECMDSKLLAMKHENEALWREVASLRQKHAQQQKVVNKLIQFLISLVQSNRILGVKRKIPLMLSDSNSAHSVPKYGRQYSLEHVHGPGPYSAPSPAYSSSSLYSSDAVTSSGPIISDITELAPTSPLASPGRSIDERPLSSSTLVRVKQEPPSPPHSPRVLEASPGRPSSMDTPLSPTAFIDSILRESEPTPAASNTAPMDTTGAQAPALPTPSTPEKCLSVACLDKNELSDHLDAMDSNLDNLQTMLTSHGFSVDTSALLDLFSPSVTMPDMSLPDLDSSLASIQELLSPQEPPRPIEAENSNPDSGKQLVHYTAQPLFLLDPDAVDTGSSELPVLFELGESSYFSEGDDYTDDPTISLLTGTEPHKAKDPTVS

[13] = target: E3 ubiquitin-protein ligase UHRF1 (Homo sapiens, UniProt Q96T88); assay: Counterscreen for inhibitors of 5-meCpG-binding domain protein 2 (MBD2): TRFRET-based biochemical high throughput dose response assay to identify inhibitors of binding of ubiquitin-like with PHD and ring finger domains 1 (UHRF1) to methylated oligonucleotide.
cells [14] = type: functional, cell-based
cells [15] = type: functional, cell-based; remark: listed apart in the source
[16] = target: T4, DNA repair protein RAD52 homolog (Homo sapiens, UniProt P43351); type: functional, biochemical
T4 sequence (P43351 whole entry): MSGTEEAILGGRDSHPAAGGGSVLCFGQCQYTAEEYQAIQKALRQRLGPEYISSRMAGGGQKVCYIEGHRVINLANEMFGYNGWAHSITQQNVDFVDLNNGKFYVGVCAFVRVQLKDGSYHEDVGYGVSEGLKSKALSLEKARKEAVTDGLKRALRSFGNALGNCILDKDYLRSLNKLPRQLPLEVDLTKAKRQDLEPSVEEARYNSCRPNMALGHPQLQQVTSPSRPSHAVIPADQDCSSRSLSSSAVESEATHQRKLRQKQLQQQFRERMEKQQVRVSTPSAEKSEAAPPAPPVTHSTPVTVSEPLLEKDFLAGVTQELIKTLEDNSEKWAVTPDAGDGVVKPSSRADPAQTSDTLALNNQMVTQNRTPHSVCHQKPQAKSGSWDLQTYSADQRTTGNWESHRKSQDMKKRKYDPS

[17] = NIH3T3 cell viability loss – ATP luminescence, mouse fibroblasts, counter-screen, dose response (AID 2010); type: functional, cell-based;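 further: cells exposed to compound for about 90 hours before reading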
[18] = Trypanosoma cruzi growth suppression in host cells – NIH3T3 host cells, beta-gal luminescence, confirmation (AID 2044); type: functional, cell-based;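 further: intracellular parasites grown in NIH/3T3 mouse fibroblasts as host cells; luminescent beta-galactosidase reporter signal from transgenic T. cruzi replicating inside host cells; inhibitors lower the luminescence signal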
INS1 = assay: INS-1E survival protection against cytokine death – cell-based, luminescence, retest, dose response (AID 449756); type: functional; details: Rattus norvegicus;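 further: cell death triggered by IL-1 beta plus TNF-alpha plus IFN-gamma mixture; protective hits raise ATP signal compared with cytokine alone wells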
[19] = target: DNA (cytosine-5)-methyltransferase 1 (Homo sapiens, UniProt P26358); assay: inhibition of DNA methylation by DNMT1 – biochemical, fluorescent molecular beacon, confirmation (AID 602386); type: functional
[20] = Counterscreen for activators of the function of SWI/SNF related, matrix associated, actin dependent regulator of chromatin, subfamily a, member 2 (SMARCA2, BRM): Luminescence-based cell-based high throughput dose response assay to identify non-selective compounds using the VP16 reporter assay.; type: functional
[21] = target: SWI/SNF-related matrix-associated actin-dependent regulator of chromatin subfamily A member 2 (Homo sapiens, UniProt P51531); assay: Luminescence-based cell-based high throughput dose response assay to identify activators of the function of SWI/SNF related, matrix associated, actin dependent regulator of chromatin, subfamily a, member 2 (SMARCA2, BRM).; type: functional
[22] = blockers of HIV-1 ZM109 envelope-driven cell-cell fusion – HeLa effector, CEM target cells, luciferase, cherry-pick, dose response (AID 652058); type: functional, cell-based;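 further: luciferase signal from HIV-1 Env mediated cell-cell fusion of effector and target cells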
[23] = blockers of HIV-1 envelope-mediated cell-cell fusion – cherry-pick, dose response (AID 652057); type: functional, cell-based
[24] = potency of ADAM10 substrate cleavage blockers – biochemical, QFRET, dose response (AID 743254);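 further: ADAM10 enzyme with the DM2 quenched FRET peptide as substrate; EDANS fluorescence gain as the protease cuts the substrate; inhibitor potency against ADAM10 proteolytic activity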
[25] = target: Disintegrin and metalloproteinase domain-containing protein 17 (Homo sapiens, UniProt P78536); assay: inhibition of ADAM17 substrate cleavage – biochemical, quenched FRET substrate, counter-screen for ADAM10 exosite inhibitor project, dose response (AID 743253)
[26] = target: RNA-editing ligase 1, mitochondrial (Trypanosoma brucei brucei, UniProt P86926); assay: inhibition of trypanosome RNA editing ligase – biochemical, fluorescence, Trypanosoma brucei, dose response (AID 1117295); type: functional
Sequence of RNA-editing ligase 1, mitochondrial (P86926 whole entry): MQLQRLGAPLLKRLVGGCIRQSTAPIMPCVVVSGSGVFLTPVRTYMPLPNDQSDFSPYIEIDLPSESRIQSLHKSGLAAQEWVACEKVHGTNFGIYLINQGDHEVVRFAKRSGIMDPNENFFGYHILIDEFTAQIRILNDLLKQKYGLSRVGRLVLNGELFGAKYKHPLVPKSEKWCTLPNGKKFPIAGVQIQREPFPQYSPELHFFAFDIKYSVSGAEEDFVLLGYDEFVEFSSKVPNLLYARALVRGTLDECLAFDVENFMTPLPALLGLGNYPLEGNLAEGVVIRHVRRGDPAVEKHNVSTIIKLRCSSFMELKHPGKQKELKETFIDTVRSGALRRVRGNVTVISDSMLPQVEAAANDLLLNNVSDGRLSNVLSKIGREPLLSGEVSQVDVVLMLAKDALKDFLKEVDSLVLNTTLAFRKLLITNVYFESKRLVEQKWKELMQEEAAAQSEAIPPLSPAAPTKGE

Sequence of Mu-type opioid receptor (P35372 whole entry): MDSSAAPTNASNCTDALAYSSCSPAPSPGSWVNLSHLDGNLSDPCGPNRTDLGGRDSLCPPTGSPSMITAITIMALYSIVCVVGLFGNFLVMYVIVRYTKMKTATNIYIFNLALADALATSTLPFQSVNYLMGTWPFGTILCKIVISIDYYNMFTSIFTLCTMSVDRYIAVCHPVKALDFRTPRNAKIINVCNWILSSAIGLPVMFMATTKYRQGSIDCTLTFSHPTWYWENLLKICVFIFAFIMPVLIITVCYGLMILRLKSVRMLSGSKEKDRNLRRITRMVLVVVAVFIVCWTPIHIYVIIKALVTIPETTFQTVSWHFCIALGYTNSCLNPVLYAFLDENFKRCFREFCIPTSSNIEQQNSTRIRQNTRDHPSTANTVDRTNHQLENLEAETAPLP
Sequence of 5-hydroxytryptamine receptor 2A (P35363 whole entry): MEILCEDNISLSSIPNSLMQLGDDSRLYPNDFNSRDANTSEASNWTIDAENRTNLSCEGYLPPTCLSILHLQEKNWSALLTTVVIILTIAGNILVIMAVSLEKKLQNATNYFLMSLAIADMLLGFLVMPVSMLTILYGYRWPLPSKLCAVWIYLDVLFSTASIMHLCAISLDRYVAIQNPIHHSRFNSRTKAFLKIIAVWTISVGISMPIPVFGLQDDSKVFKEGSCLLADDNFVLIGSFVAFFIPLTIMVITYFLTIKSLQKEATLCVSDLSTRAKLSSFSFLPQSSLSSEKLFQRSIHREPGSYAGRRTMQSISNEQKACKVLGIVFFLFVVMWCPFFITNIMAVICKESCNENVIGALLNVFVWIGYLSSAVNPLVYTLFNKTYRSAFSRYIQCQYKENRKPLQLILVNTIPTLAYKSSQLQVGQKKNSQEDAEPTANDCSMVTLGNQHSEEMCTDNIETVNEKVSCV
Sequence of DNA (cytosine-5)-methyltransferase 1 (P26358 whole entry): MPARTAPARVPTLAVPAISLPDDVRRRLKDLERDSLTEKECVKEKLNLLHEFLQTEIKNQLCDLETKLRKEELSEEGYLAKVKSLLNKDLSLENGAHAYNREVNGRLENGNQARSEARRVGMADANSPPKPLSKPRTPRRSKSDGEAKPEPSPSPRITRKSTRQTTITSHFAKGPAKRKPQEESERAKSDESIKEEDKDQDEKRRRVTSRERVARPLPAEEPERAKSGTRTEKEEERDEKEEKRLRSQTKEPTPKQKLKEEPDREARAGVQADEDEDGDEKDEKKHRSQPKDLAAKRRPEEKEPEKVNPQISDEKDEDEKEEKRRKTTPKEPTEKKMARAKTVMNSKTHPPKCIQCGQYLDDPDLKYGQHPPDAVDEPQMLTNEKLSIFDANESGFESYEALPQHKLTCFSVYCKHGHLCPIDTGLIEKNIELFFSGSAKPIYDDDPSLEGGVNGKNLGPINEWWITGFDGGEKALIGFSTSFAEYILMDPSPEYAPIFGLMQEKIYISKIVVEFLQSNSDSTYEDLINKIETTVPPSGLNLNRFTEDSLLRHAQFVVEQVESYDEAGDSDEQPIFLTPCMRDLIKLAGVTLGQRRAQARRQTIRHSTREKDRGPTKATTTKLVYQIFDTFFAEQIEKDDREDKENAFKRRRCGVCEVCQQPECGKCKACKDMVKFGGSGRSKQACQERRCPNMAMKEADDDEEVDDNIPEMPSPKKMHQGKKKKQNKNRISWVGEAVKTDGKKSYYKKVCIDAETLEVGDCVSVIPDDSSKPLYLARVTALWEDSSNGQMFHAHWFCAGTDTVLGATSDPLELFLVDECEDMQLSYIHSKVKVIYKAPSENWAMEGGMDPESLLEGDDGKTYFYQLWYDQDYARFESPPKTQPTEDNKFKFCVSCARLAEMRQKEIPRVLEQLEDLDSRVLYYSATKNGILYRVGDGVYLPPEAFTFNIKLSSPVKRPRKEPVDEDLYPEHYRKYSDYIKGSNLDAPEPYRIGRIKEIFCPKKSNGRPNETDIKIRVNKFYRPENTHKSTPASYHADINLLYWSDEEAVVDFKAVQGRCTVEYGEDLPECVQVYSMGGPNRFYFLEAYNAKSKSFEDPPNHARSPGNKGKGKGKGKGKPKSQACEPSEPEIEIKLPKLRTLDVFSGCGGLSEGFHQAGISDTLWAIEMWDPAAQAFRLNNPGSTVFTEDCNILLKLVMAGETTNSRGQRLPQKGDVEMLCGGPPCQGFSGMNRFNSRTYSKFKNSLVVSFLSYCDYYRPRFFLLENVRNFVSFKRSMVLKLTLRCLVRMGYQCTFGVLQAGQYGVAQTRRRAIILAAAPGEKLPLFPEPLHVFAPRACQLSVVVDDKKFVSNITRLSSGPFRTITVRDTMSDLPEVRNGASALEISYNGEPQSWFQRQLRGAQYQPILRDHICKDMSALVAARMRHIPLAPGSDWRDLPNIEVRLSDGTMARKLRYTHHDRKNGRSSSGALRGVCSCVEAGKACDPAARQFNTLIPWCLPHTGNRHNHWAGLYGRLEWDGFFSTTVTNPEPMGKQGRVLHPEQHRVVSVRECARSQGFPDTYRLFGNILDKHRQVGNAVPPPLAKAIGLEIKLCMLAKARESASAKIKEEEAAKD
Sequence of SWI/SNF-related matrix-associated actin-dependent regulator of chromatin subfamily A member 2 (P51531 whole entry, the tested form may be a part): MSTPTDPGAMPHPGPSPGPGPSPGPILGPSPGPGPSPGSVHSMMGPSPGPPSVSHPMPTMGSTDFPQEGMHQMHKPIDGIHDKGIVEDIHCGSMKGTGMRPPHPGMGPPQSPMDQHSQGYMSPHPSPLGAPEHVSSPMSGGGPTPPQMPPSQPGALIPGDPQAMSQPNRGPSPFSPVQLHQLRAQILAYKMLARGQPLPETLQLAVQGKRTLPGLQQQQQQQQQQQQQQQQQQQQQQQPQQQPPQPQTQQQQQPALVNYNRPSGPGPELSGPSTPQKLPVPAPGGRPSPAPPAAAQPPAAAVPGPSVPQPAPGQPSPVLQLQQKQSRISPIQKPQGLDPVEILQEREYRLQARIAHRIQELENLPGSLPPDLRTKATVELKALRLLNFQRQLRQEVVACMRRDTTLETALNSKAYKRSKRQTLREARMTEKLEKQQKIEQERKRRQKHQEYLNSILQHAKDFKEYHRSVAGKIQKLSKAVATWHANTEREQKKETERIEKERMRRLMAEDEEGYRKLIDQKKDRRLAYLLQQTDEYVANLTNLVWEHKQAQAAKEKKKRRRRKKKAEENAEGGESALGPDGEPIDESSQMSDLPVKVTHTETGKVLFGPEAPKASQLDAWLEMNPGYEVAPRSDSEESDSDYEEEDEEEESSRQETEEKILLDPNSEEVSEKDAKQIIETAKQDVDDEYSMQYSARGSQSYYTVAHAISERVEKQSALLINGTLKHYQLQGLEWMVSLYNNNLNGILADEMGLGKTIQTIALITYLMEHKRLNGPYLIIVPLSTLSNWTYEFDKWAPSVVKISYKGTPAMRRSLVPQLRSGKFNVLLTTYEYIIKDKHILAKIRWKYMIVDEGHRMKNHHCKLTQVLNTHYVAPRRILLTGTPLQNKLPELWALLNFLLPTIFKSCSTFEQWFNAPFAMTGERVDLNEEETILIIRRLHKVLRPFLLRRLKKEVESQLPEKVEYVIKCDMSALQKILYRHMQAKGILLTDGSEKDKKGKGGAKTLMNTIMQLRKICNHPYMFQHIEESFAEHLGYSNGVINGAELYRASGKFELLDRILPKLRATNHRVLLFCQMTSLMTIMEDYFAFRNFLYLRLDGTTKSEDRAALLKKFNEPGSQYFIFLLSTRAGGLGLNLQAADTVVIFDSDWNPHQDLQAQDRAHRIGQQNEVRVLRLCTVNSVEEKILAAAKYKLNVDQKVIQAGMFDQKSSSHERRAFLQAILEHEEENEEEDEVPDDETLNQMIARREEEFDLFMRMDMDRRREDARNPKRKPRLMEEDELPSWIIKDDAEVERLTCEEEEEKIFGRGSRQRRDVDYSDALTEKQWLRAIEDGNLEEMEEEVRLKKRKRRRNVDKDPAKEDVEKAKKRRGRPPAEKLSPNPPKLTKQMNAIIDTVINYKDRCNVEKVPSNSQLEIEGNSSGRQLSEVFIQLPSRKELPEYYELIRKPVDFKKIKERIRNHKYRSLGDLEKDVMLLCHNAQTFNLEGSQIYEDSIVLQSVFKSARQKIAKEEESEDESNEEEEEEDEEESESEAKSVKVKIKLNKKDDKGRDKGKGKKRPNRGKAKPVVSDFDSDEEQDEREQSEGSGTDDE
Sequence of Kallikrein-7 (P49862 whole entry): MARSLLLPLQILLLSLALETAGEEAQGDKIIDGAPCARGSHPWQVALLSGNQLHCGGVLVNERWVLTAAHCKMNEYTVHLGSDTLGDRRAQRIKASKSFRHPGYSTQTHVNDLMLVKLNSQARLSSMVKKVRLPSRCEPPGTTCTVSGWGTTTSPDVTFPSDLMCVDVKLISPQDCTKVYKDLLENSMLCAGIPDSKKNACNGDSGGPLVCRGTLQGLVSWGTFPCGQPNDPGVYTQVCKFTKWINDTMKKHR

For `COc1c2c(cc3c1OCO3)CCN(C)C2` [HYDROCOTARNINE HYDROBROMIDE], the EC50 (Mu-type opioid receptor) was 92.4 µM (inactive) and the EC50 [1] was 76 µM (inactive).

For `c1ccc(-c2nc(N3CCCCC3)c3ccccc3n2)cc1`, the IC50 [2] was > 80 µM (inactive) and the IC50 [3] was > 80 µM (inactive).

For `O=C1c2ccccc2NC(c2ccccc2)N1Cc1ccco1` (stereo not drawn), the EC50 (Kallikrein-7) was > 69.5 µM (inactive).

For `Cc1cc(C)c2nc(-c3ccccn3)cc(C(=O)n3cccn3)c2c1`, the IC50 [4] was > 20 µM (inactive), the IC50 [5] was > 109 µM (inactive) and the IC50 [6] was > 83.2 µM (inactive).

For `Nc1nonc1C(=O)NCCNCc1cc(Br)ccc1OCc1ccccc1F`, the AC50 [7] was 2.5 µM (active), the AC50 [8] was 40.4 µM (active) and the AC50 [9] was 0.91 µM (active). For the same compound, the AC50 [10] was 40.5 µM (active) and the AC50 [11] was 14.9 µM (active).

With `CN1CCc2c(sc(/N=C/c3cc(C(C)(C)C)ccc3O)c2C#N)C1` the EC50 (Mu-type opioid receptor) was 92.6 µM (inactive), the EC50 [12] was > 195 µM (not active) and the EC50 [1] was 12.9 µM (inactive).

With `CCN(CC)CCC(=O)Nc1cccc2c1C(=O)c1ccccc1C2=O` the IC50 [13] was > 43.8 µM (inactive), the EC50 (cells [14]) was 59.3 µM (active) and the EC50 (cells [15]) was > 350 µM (not active). The AC50 [16] was 0.801 µM (active), the EC50 [17] was 13.4 µM (active) and the EC50 [18] was 0.61 µM (active). The AC50 (INS1) was 4.28 µM (active), the IC50 [19] was 6.86 µM (active) and the EC50 [20] was > 91.3 µM (inactive). The EC50 [21] was 9.64 µM (active).

For `C[C@@H]1CN([C@H](C)CO)S(=O)(=O)c2ccc(C3=CCCCC3)cc2O[C@@H]1CN(C)S(=O)(=O)c1ccc(F)cc1`, the AC50 [22] was 12.1 µM (active), the AC50 [10] was 32.5 µM (active) and the AC50 [11] was 7.76 µM (active). The AC50 [23] was 8.56 µM (active).

In the case of `CCCCCCNC(=O)O[C@H]1Cn2c(=O)n(CCCCCC)c(=O)n2[C@@H]2CN(S(=O)(=O)c3ccc(C)cc3)C[C@]12O`, the IC50 [24] is reported as 10.3 µM (inactive) and the IC50 [25] is reported as > 69.5 µM (inactive).

For `COC(=O)C1=C(C)N(Cc2cccc(C(F)(F)F)c2)C(NCc2ccccc2C(F)(F)F)=NC1c1ccccc1C(F)(F)F` (stereo not drawn), the IC50 [26] was > 96.6 µM (inactive).
